Experimental data published in ChEMBL document CHEMBL1152360, “Structure-activity relationships of memoquin: Influence of the chain chirality in the multi-target mechanism of action” (Bioorg Med Chem Lett, 2009).

What was measured:
Acetylcholinesterase [1] = target: T1, Acetylcholinesterase (Homo sapiens, UniProt P22303); assay: Inhibition of human AChE-induced amyloid beta (1-40) aggregation by thioflavin T fluorescence-based assay
[2] = target: Amyloid-beta precursor protein (Homo sapiens) (UniProt P05067); assay: Inhibition of self-assembly of human amyloid beta (1-42) aggregation at 10 uM by thioflavin T-based fluorometric assay
Amyloid-beta precursor protein (Homo sapiens), sequence (P05067 whole entry): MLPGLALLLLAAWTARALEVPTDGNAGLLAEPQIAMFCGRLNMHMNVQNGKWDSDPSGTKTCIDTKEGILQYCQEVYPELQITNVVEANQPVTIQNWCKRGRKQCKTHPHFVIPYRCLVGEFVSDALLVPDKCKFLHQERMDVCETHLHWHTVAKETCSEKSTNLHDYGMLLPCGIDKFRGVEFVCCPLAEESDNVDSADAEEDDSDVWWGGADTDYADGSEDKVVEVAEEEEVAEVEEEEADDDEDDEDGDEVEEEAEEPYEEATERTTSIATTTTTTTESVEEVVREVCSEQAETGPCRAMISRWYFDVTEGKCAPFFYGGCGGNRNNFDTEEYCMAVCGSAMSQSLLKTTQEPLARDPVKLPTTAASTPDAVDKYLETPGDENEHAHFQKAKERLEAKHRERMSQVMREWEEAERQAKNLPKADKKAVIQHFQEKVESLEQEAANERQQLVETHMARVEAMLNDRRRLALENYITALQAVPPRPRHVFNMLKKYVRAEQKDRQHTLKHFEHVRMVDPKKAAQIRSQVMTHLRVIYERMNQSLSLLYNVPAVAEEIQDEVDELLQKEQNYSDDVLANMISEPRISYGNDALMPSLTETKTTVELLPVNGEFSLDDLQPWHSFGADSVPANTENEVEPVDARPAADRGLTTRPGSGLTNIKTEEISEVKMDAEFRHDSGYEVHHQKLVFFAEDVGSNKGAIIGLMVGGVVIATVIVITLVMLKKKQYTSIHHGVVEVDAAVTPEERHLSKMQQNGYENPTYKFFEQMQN

[3] = target: Cholinesterases; ACHE & BCHE (Homo sapiens) (UniProt P06276+P22303); assay: Selectivity ratio of IC50 for human recombinant BchE to IC50 for human recombinant AChE
Cholinesterases; ACHE & BCHE (Homo sapiens), sequence (P06276 whole entry, looked up): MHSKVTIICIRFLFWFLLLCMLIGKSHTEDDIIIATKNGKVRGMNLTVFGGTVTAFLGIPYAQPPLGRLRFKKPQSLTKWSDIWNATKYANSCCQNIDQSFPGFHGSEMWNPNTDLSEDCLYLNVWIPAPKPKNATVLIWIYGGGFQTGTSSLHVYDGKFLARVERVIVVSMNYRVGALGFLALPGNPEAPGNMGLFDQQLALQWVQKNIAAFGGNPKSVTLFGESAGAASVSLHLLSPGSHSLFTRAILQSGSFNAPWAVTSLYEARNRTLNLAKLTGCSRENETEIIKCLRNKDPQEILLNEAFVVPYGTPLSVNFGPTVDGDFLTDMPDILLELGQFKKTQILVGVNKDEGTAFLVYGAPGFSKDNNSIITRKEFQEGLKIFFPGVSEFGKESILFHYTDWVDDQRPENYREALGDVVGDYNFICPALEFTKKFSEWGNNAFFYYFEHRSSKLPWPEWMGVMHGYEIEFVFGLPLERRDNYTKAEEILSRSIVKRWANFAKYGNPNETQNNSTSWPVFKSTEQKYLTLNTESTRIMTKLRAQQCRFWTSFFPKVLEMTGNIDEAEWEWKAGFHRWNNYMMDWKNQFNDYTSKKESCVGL
Cholinesterases; ACHE & BCHE (Homo sapiens), sequence (P22303 whole entry, looked up): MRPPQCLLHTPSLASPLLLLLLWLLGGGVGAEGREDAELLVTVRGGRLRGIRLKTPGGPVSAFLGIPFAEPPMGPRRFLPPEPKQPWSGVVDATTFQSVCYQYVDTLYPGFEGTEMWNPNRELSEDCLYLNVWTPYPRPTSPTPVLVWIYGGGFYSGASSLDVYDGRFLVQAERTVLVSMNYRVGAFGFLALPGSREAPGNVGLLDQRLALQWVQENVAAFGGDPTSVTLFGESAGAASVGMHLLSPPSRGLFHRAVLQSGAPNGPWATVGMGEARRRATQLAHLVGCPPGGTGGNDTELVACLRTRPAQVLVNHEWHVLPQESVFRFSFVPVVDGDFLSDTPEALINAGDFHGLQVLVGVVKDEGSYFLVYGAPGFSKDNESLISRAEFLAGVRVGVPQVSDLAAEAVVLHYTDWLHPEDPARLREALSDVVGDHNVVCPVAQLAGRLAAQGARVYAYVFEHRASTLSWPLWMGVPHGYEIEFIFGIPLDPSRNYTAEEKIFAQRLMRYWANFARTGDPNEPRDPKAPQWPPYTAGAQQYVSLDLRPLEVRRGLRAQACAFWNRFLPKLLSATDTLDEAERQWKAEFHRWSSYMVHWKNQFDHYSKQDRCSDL

Acetylcholinesterase [4] = target: T1, Acetylcholinesterase; assay: Inhibition of human recombinant AChE preincubated 20 mins before substrate addition by Ellman method
Cholinesterase = Cholinesterase (Homo sapiens, UniProt P06276); assay: Inhibition of human recombinant BchE preincubated 20 mins before substrate addition by Ellman method
Cholinesterase, sequence (P06276 whole entry): as the sequence (P06276 whole entry, looked up) above

T1 sequence (P22303 whole entry): as the sequence (P22303 whole entry, looked up) above

CCN(CCCCCCNC1=CC(=O)C(NCCCCCCN(CC)[C@@H](C)c2ccccc2OC)=CC1=O)[C@@H](C)c1ccccc1OC
IC50 (Acetylcholinesterase [1]): 7910 nM
inhibition [2]: 62.3%
Ratio IC50 [3]: 238
IC50 (Acetylcholinesterase [4]): 4.03 nM
IC50 (Cholinesterase): 958 nM

CCN(CCCCCCNC1=CC(=O)C(NCCCCCCN(CC)[C@@H](C)c2ccccc2OC)=CC1=O)[C@H](C)c1ccccc1OC
IC50 (Acetylcholinesterase [1]): 11000 nM
inhibition [2]: 63.5%
Ratio IC50 [3]: 2730
IC50 (Acetylcholinesterase [4]): 0.36 nM
IC50 (Cholinesterase): 982 nM

CCN(CCCCCCNC1=CC(=O)C(NCCCCCCN(CC)[C@H](C)c2ccccc2OC)=CC1=O)[C@H](C)c1ccccc1OC
IC50 (Acetylcholinesterase [1]): 9340 nM
inhibition [2]: 63.9%
Ratio IC50 [3]: 2960
IC50 (Acetylcholinesterase [4]): 0.5 nM
IC50 (Cholinesterase): 1480 nM

CCN(CCCCCCNC1=CC(=O)C(NCCCCCCN(CC)Cc2ccccc2OC)=CC1=O)Cc1ccccc1OC
Ratio IC50 [3]: 929
